Reference: US20220079960A1, “USE OF P1P DERIVATIVES AS THERAPEUTIC AGENT FOR SEPSIS” (AXCESO BIOPHARMACO.,LTD., priority 2019, published 2022)
Read-outs that look alike come from different tables or passages of the source.

Key:
Solubility in water = type: physicochemical
[1] = test system: Human umbilical vein endothelial cell (HUVEC); assay: Survival of human vascular endothelial cells under oxidative stress (H2O2), MTT assay; type: cell-based; settings: for cell viability compared with S1P: 500 μM hydrogen peroxide (FIG. 7)
Experimental: Human umbilical vein endothelial cell (HUVEC) used in the experiment was purchased from Promocell, and cultured in an incubator at 37° C., 5% CO2 using Endothelial Cell Growth Medium 2 as a culture medium. To confirm the efficacy of P1P drug in an oxidative stress environment, HUVEC cells were pretreated with P1P or cP1P at concentrations of 10 nM, 100 nM, and 1000 nM for 1 hour, and then exposed to oxidative stress by treatment with 500 μM hydrogen peroxide (H2O2) for 6 hours. The efficacy of the […] drug on the survival of HUVEC cells after 6 hours of exposure to oxidative stress was confirmed by MTT assay. As a comparison group, S1P was used at the same concentration and conditions.
In addition to causing inflammation, LPS promotes oxidative stress to promote vascular endothelial cell death. To analyze the effect of the present drugs, oxidative stress was induced in vascular endothelial cells by treatment with 500 μM of hydrogen peroxide.

TNF-α = assay: Inflammatory cytokine (TNF-α) secretion after LPS treatment in macrophages, ELISA; type: cell-based; settings: Mus musculus
Experimental: The macrophage cell line used in the experiment was Raw 264.7 cell line purchased from ATCC, and Dulbeco's Modified Eagle's Media high glucose (with 10% FBS, 0.5% P/S) was used as a medium for culturing macrophages. Macrophages were cultured at 37° C., 5% CO2 incubator. Macrophages were treated with P1P or cP1P drugs at concentrations of 0.02 μM, 0.1 uM, 0.5 μM and 1 μM, respectively and then LPS of 1 ng/ml after 6 hours, and cultured for 4 hours. And then changes of inflammatory cytokines (Tumor necrosis factor alpha, TNF-α) were measured by the manufacturer's method using ELISA (BD OPTEIAT™). As a comparison group, S1P was used at the same concentration and conditions.
To this end, macrophage cell lines were treated with LPS to increase inflammatory cytokines, and the efficacy of P1P and derivatives thereof on inflammatory cytokine secretion was evaluated. Macrophage cell lines were treated with P1P drug or cP1P drug, and 6 hours later, treated with LPS at a concentration of 500 ng/mL for 4 hours.

SIRT1 = assay: Expression of SIRT1 in macrophages, RT-PCR; type: cell-based; settings: Raw 264.7 macrophages; 0.01-1 μM; RT-PCR 24 hours later (FIG. 8)
Experimental: The macrophage cell line used in the experiment was Raw 264.7 cell line purchased from ATCC, and Dulbeco's Modified Eagle's Media high glucose (with 10% FBS, 0.5% P/S) was used as a medium for culturing macrophages. Macrophages were cultured in an incubator at 37° C., 5% CO2. Macrophages were treated with P1P or cP1P drug at concentrations of 0.01 μM, 0.1 μM, and 1 μM, respectively and then LPS of 100 ng/ml after 4 hours, and cultured for 24 hours. The change in SIRT1 protein was measured by RT-PCR.
Expression of SIRT1 protein is very important in the treatment of sepsis. When sepsis is induced, the synthesis and activity of SIRT1 protein is reduced. Macrophages were treated with P1P drugs during culture, and the expression level of SIRT1 protein was confirmed by RT-PCR 24 hours later.

Balb/c mice = assay: LPS sepsis mouse model: effect of drugs on survival rate; type: in vivo; settings: for Survival rate (%): drug 40 μg/mouse i.p. 5 minutes after LPS
Experimental: For the experiment of the survival rate of mice after LPS administration, 7-week-old Balb/c mice were purchased from Orient Bio and adapted to the laboratory. Then, LPS (Sigma) was dissolved in phosphate buffer solution (PBS) at a concentration of 400 μg/mouse, 200 μg/mouse, 170 μg/mouse, 150 μg/mouse, 125 μg/mouse, and 100 μg/mouse, and 100 uL of each was injected into the abdominal cavity of a mouse.
(§1) To this end, the LPS concentration was determined to be 150 μg/mouse, and the P1P drug was intraperitoneally injected at a concentration of 40 μg/mouse 5 and 60 minutes after intraperitoneal injection of LPS. The survival rate was measured by observation for 72 hours at 12 hour intervals. In another experiment, P1P drug was injected intraperitoneally at a concentration of 40 μg/mouse 1 hour after intraperitoneal injection of LPS of 125 μg/mouse to compare the survival rate of mice. In the same way, the survival rate was measured while changing the P1P concentration.
as §1, with “cP1P” for “P1P”, “mice.” for “mice. In the same way, the survival rate was measured while changing the P1P concentration.”
Soybean lecithin called Lipoid S-75 was used to prepare the liposome, and 20 mg of lecithin was dissolved in 1 mL of chloroform. P1P or cP1P was dissolved in 1 mL of chloroform/methanol (2:1, v/v) solvent in an amount of 2 mg, 1 mg or 0.5 mg, respectively, and mixed with the lecithin solution. A thin lipid film was made by removing the organic solvent from the mixed solution using nitrogen gas or a rotary evaporator. The thin lipid film was stored in a vacuum desiccator overnight to completely remove the organic solvent remaining on the film. 5 mL of a phosphate buffer solution was added to the thin lipid film and stirred for 30 minutes to prepare multilamellar vesicles (MLV, large liposomes). The prepared MLV particles were sonicated for 2 minutes in an ice bath to make small unilamellar vesicles (SUV) of 100 nm or less. This sonication process was repeated twice. Only the supernatant obtained by centrifugation of the prepared SUV at 12000 rpm for 5 minutes was used in the experiment. Liposomes containing P1P or cP1P drug (P1P-liposomes/cP1P-liposomes) were used in an experiment to increase the survival rate of mice using LPS. To this end, LPS of 170 μg/mouse, which is higher than the conventional LPS concentration (125-150 μg/mouse), was injected into the abdominal cavity of the mouse. P1P or cP1P drug was administered at 40 μg/mouse 5 minute after LPS administration, and 100 μl of P1P-liposomes and cP1P-liposomes (P1P and cP1P of about 40 μg/mouse) were injected into the abdominal cavity of the mouse, and the survival rate change was determined over time.
The effect of P1P to treat sepsis was tested under the same conditions as described in the experimental method. P1P of 40 μg/mouse was administered intraperitoneally and intravenously 5 minutes after intraperitoneal injection of LPS of 150 μg/mouse. […] When the P1P drug was administered 1 hour after LPS administration, the survival rate was about 40% for intraperitoneal injection and 20% for intravenous injection (FIG. 2b). These indicate that P1P effectively ameliorated sepsis induced after LPS treatment. Furthermore, P1P of 40 μg/mouse was administered by intraperitoneal injection 1 hour after intraperitoneal injection of 125 μg/mouse of LPS. […] In the case of 20 μg/mouse concentration, the survival rate was 80%, and in the case of 10 μg/mouse concentration, the survival rate was about 60% (FIG. 3b). It was confirmed that P1P increased the survival rate in a concentration-dependent manner. […]

[2] = test system: Human umbilical vein endothelial cell (HUVEC); assay: Proliferation of human vascular endothelial cells, MTT assay; type: cell-based; settings: 10 nM, 100 nM and 1000 nM, 48 hours, compared with S1P (FIG. 6)
Experimental: Human umbilical vein endothelial cell (HUVEC) used in the experiment was purchased from Promocell, and cultured in an incubator at 37° C., 5% CO2 using Endothelial Cell Growth Medium 2 as a culture medium. To confirm the proliferation effect of P1P drug, HUVEC cells were treated with P1P or cP1P drug at concentrations of 10 nM, 100 nM and 1000 nM, respectively, and cultured for 48 hours. The cell proliferation rate was measured according to the manufacturer's method using MTT assay (Molecular Probes). As a comparison group, S1P was used at the same concentration and conditions.

[3] = S1P administered directly; cited from earlier work
[4] = RAW264.7, read-out: inhibitory efficacy on inflammatory cytokine (TNF-α) production
[5] = LPS 125 μg/mouse i.p., drug 40 μg/mouse i.p. 1 hour after LPS (FIG. 3a, FIG. 4b)
[6] = LPS 150 μg/mouse i.p., drug 40 μg/mouse intraperitoneally 5 minutes after LPS (FIG. 2a, FIG. 4a)

SMILES | solubility in water (Solubility in water) | cell viability compared with S1P [1] | inhibition at 1 µM (TNF-α; [4]) [%] | expression level of SIRT1 protein (SIRT1) | survival rate (Balb/c mice; [5]) | survival rate (Balb/c mice; [6]) [%] | Survival rate (%) (Balb/c mice; LPS 170 μg/mouse i.p., 0 h) | Survival rate (%) (Balb/c mice; LPS 170 μg/mouse i.p., 12 h) | Survival rate (%) (Balb/c mice; LPS 170 μg/mouse i.p., 24 h) | Survival rate (%) (Balb/c mice; LPS 170 μg/mouse i.p., 36 h) | Survival rate (%) (Balb/c mice; LPS 170 μg/mouse i.p., 48 h) | Survival rate (%) (Balb/c mice; LPS 170 μg/mouse i.p., 72 h) | efficacy on proliferation of vascular endothelial cells [2] | Survival rate (%) (Balb/c mice; LPS 150 μg/mouse i.p., 0 h) | Survival rate (%) (Balb/c mice; LPS 150 μg/mouse i.p., 12 h) | Survival rate (%) (Balb/c mice; LPS 150 μg/mouse i.p., 36 h) | Survival rate (%) (Balb/c mice; LPS 150 μg/mouse i.p., 48 h) | Survival rate (%) (Balb/c mice; LPS 150 μg/mouse i.p., 72 h) | Survival rate (%) (Balb/c mice; LPS 150 μg/mouse i.p., 24 h) | also measured
CCCCCCCCCCCCCC[C@@H](O)[C@H]1OP(=O)(O)OC[C@@H]1N [cP1P, O-cyclic P1P] | poorly soluble in water | higher cell viability than S1P | 35 | increased SIRT1 protein even at very low concentrations | about 100% | ≥ 70 | 100 | 80 | 60 | 40 | 40 | 40 | higher than that of S1P |  |  |  |  |  |  | 
CCCCCCCCCCCCC/C=C/[C@@H](O)[C@@H](N)COP(=O)(O)O [S1P, sphingosine-1-phosphate, reference compound] |  |  |  |  |  |  |  |  |  |  |  |  |  | 100 | 100 | 40 | 40 | 40 |  | inhibition at 1 µM (TNF-α; RAW264.7, 1 μM, Raw 264.7 macrophages, drug 6 hours before LPS, LPS 4 hours, ELISA, read-out: inhibitory efficacy on inflammatory cytokine (TNF-α) production): 19%; degradation rate in the blood [3]: high degradation rate in the blood
CCCCCCCCc1ccc(CCC(N)(CO)CO)cc1 [FTY720, fingolimod, reference compound] |  |  |  |  |  |  |  |  |  |  |  |  |  | 100 | 100 | 20 | 20 | 20 | 40 | 
CCCCCCCCCCCCCC[C@@H](O)[C@H](O)[C@H](N)COP(=O)(O)O (stereo in doubt) [P1P, Phytosphingosine-1-phosphate] | poorly soluble in water | higher cell viability than S1P | 49 | increased SIRT1 protein even at very low concentrations | 100% | ≥ 80 | 100 | 80 | 40 | 20 | 20 | 20 | higher than that of S1P | 100 | 100 |  | 80 | 80 | 100 | cell viability ([1]; 500 μM hydrogen peroxide, untreated control about 40%): ≥ 70%; survival rate (Balb/c mice; LPS 125 μg/mouse, drug 10 μg/mouse 60 minutes after LPS (FIG. 3b)): about 60%; survival rate (Balb/c mice; LPS 125 μg/mouse, drug 20 μg/mouse 60 minutes after LPS (FIG. 3b)): 80%; survival of mice while varying drug concentration (Balb/c mice; LPS 125 μg/mouse, drug 40 μg/mouse 60 minutes after LPS, up to 72 hours (FIG. 3b)): all of them survived up to 72 hours; survival rate (Balb/c mice; LPS 150 μg/mouse i.p., drug 40 μg/mouse intravenously 5 minutes after LPS (FIG. 2a)): ≥ 80%; survival rate (Balb/c mice; LPS 150 μg/mouse i.p., drug by intraperitoneal injection 1 hour after LPS (FIG. 2b)): about 40%; survival rate (Balb/c mice; LPS 150 μg/mouse i.p., drug by intravenous injection 1 hour after LPS (FIG. 2b)): 20%
